Experimental data reported in patent publication US20230085945A1, “ORTHOGONAL SAFETY SWITCHES TO ELIMINATE GENETICALLY ENGINEERED CELLS” (The Board of Trustees of the Leland Stanford Junior …, priority 2020, published 2023).

Columns and labels:
[1] = system: NANOG^iCasp9-YFP hPSCs transplanted subcutaneously (teratomas); assay: In vivo teratoma formation after AP20 pre-treatment of hPSCs (bioluminescent imaging); design: species or system NOD-SCID Il2rg^−/− mice; conditions: 5×10^5 hPSCs pre-treated with 1 nM AP20 for 24 hours, subcutaneous transplantation
Procedure: (§1) FIG. 3: Implementation of the NANOG^iCasp9-YFP safety switch. A) Schema depicting how drug AP20187 induces dimerization of Caspase9 in undifferentiated NANOG^iCasp9-YFP hESCs, subsequently triggering cell death (top left). NANOG^iCasp9-YFP hESCs were treated for 24 hours with increasing concentrations of AP20187. AP20187 was withdrawn, and cultures were further grown in mTeSR1 to allow any surviving hESCs to grow; any surviving colonies were counted 1 week later (top right). Alkaline phosphatase staining of whole wells of a 12-well plate after 24-hour treatment with AP20187 (bottom). […] Bioluminescent imaging of mice occurred weekly for 5 weeks with no transplant control (NTC) animals included for relative luminescence normalization. Total flux (photons/sec) was measured for each animal and averaged. […] The percentage of surviving cells was calculated relative to untreated controls. […]
Given that very small numbers of hPSCs (10,000) are sufficient to form teratomas in vivo, we tested the lower bounds of this system to test whether any rare hPSCs survived drug treatment and whether they could form teratomas. […] We used bioluminescent imaging (using the AkaLuciferase system) to determine if micro-teratomas might form, rather than visual inspection of subcutaneous nodules, because bioluminescent imaging is more sensitive and quantitative. […]

[2] = system: NANOG-YFP^+ hPSCs mixed with hPSC-derived sclerotome cells; assay: Ablation of undifferentiated hPSCs in a heterogeneous cell population (hPSCs spiked into day-5 sclerotome cells); type: cell-based, human
Procedure: as §1
Flow cytometric quantification of viable cells—NANOG^iCasp9-YFP hESCs were dissociated into single cells with Accutase and 1×10^6 cells were plated per well in a 6-well plate pre-coated with Matrigel. […] Subsequently, to quantify the percentage of surviving cells, the cultures were dissociated with TrypLE Express. […] YFP^+ (i.e., NANOG^+) cells were analyzed (Beckman Coulter CytoFlex Analyzer) to count live cells for both untreated and AP20187-treated groups. […]

Q: How did the “mice that formed teratomas” value [1] turn out when `CC[C@H](C(=O)N1CCCC[C@H]1C(=O)O[C@H](CCc1ccc(OC)c(OC)c1)c1cccc(OCC(=O)NCC(CNC(=O)COc2cccc([C@@H](CCc3ccc(OC)c(OC)c3)OC(=O)[C@@H]3CCCCN3C(=O)[C@@H](CC)c3cc(OC)c(OC)c(OC)c3)c2)CN(C)C)c1)c1cc(OC)c(OC)c(OC)c1` [AP20] was run?
A: 0/14

Q: And the “decrease in NANOG-YFP^+ cells” value ([2]; 10% undifferentiated hPSCs in day-5 sclerotome progenitors, AP20 for last 24 hours)?
A: > 10 fold

Q: And the “colony formation of surviving FACS-purified NANOG-YFP^+ cells” value ([2]; continued culture in hPSC media after AP20)?
A: did not form colonies
